From US6083932A, “Pharmaceutical compositions derived from ginseng and methods of treatment using same” (CV Technologies Inc., priority 1998, dated 2000)

Legend:
monoamine oxidase-A = target: T1, monoamine oxidase-A (Rattus norvegicus, UniProt P21396); assay: in vitro monoamine oxidase-A inhibiting activity (radiochemical, 5-hydroxytryptamine substrate); assay type: biochemical; conditions: read-out: % MAO-A Inhibition; for inhibition at 1000 µg/mL: 1.0 mg/ml; for inhibition at 10000 µg/mL: 10 mg/ml
T1 construct: homogenates of rat brain; from tissue; host or cells: rat brain homogenate
T1 sequence (P21396 1-526): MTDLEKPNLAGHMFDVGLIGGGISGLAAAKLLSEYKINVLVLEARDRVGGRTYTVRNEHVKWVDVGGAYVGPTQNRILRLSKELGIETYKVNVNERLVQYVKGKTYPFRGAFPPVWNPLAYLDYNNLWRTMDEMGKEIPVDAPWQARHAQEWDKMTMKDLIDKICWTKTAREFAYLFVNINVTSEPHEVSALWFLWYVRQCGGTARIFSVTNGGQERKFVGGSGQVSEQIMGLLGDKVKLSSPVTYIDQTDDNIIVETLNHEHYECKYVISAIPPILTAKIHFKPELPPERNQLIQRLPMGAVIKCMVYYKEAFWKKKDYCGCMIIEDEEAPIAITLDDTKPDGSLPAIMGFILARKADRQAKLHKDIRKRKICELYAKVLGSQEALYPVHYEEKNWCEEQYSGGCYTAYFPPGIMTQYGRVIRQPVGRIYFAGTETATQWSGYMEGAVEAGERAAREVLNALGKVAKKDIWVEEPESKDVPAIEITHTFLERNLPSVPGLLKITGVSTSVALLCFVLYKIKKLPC
Description: (§1) Example 1 is a study of the effects of several extracts of HT1001, PQ4, PQ5, PQ6 and pure ginsenosides, on monoamine oxidase A (MAO A) and monoamine oxidase B (MAO B) activity in vitro.
(§2) HT-1001, related extracts and pure ginsenosides were evaluated for in vitro monoamine oxidase-A and monoamine oxidase-B inhibiting activity using the radiochemical procedure of Lyles and Callingham, Biochem. Pharmacol. 31: 1417-1424 (1982), employing either radiolabelled 5-hydroxytryptamine or β-phenylethylamine as substrates for monoamine oxidase-A (MAO-A) or monoamine oxidase-B (MAO-B) respectively. Various concentrations of the compounds of interest were incubated in appropriately diluted homogenates of rat brain in a 0.2 M potassium phosphate buffer. After a 15 minute preincubation period the reaction was initiated by the addition of substrate. Incubations proceded at 37° C. for 10 minutes. Incubation was terminated by the addition of acid and the radiolabelled products (5-hydroxyindoleacetic acid, 5-hydroxyindoleacetaldehyde or phenylacetic acid, phenylacetaldehyde) were extracted and quantified by liquid scintillation counting procedures. Incubations were done in triplicate and incubations including pheneizine a known MAO inhibitor were included as controls and for comparison. The percent inhibition of monoamine oxidase-A or monoamine oxidase-B activity compared to controls containing no experimental material was calculated.

PC12 cells = assay: neurite outgrowth in PC12 cells; assay type: cell-based; conditions: seven days after treatment
Description: A study of the neurotrophic effects of HT1001 and some pure ginsenosides was conducted. A new mechanism of action for HT1001 was shown, which is the stimulation of neurite outgrowth in a PC12 cell line. […] The beneficial effects (prevention/treatment) of HT-1001 may apply to degenerative diseases such as senile dementia, Parkinson's disease, Alzheimer's disease, multi-infarct dementia, etc. Alzheimer's disease (AD) is associated with degeneration of cholinergic nerve tracts including projections from the basal forebrain to the cortex and hippocampus. The PC12 (pheochromocytoma) cell line is one of the models for the study of the development of these nerve tracts. The cell line is phenotypically a chromaffin cell line, but can be induced to express adrenergic and cholinergic markers as well. This model has the advantages that (1) it is an immortalized cell line, (2) it is sensitive to, but not dependent upon, NGF for survival, and (3) it shares many properties in common with the central cholinergic neurons of the basal forebrain. It has been noted that PC12 cells are not sensitive to all of the trophic factors that central cholinergic neurons respond to, whereas central cholinergic neurons respond to all trophic factors that PC12 cells respond to. […] The cellular responses to Nerve Growth Factor (NGF) and samples were determined by counting the number of cells containing processes in PC12 cells. […] The cells and neurites were counted as follows: The cells with circular or global shape and no neurite outgrowth were scored as 0 (S0). […] Cells with more than two small neurites on the cell bodies were scored as S2. Cells with one or two neurites with a length of at least two times diameter as their body were scored as S3. Cells with more than two long neurites were scored as S4. The neurite index was calculated as below: Neurite index (In)=total neurite Score (ΣS)/total cell number (.[…] is the cell number of every cell field. The test samples included: […]

monoamine oxidase-B = target: T2, monoamine oxidase-B (Rattus norvegicus, UniProt P19643); assay: in vitro monoamine oxidase-B inhibiting activity (radiochemical, β-phenylethylamine substrate); assay type: biochemical; conditions: read-out: % MAO-B Inhibition; for inhibition at 1000 µg/mL: 1.0 mg/ml; for inhibition at 10000 µg/mL: 10 mg/ml
T2 construct: homogenates of rat brain; from tissue; host or cells: rat brain homogenate
T2 sequence (P19643 1-520): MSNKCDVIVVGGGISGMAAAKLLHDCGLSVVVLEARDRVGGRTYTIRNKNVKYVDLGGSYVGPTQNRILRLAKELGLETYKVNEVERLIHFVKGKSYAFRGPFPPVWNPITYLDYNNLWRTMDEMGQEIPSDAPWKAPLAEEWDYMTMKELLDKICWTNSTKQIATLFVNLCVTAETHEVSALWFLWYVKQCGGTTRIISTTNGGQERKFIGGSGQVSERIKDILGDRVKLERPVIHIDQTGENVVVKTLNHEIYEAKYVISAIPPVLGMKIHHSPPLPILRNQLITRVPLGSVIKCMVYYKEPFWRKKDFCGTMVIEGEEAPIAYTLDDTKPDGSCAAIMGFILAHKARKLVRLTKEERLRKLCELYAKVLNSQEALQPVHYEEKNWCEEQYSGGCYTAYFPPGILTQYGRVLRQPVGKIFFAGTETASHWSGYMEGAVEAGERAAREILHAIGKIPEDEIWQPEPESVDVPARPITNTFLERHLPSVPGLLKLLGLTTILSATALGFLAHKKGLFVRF
Description: as §1, §2

Compound | inhibition at 1000 µg/mL (monoamine oxidase-A) [%] | inhibition at 10000 µg/mL (monoamine oxidase-A) [%] | neurite outgrowth (FIG. 31) (PC12 cells) | inhibition at 1000 µg/mL (monoamine oxidase-B) [%] | inhibition at 10000 µg/mL (monoamine oxidase-B) [%]
CC(C)=CCC[C@](C)(O[C@@H]1O[C@H](CO[C@@H]2O[C@H](CO)[C@@H](O)[C@H](O)[C@H]2O)[C@@H](O)[C@H](O)[C@H]1O)[C@H]1CC[C@]2(C)[C@@H]1[C@H](O)C[C@@H]1[C@@]3(C)CC[C@H](O[C@@H]4O[C@H](CO)[C@@H](O)[C@H](O)[C@H]4O[C@@H]4O[C@H](CO)[C@@H](O)[C@H](O)[C@H]4O)C(C)(C)[C@@H]3CC[C@]12C [Rb1, ginsenoside Rb1] | -6.9 | 7.1 | significantly increased neurite outgrowth | -11.6 | -7.8
CC(C)=CCC[C@](C)(O[C@@H]1O[C@H](CO)[C@@H](O)[C@H](O)[C@H]1O)[C@H]1CC[C@]2(C)[C@@H]1[C@H](O)C[C@@H]1[C@@]3(C)CC[C@H](O)C(C)(C)[C@@H]3[C@@H](O[C@@H]3O[C@H](CO)[C@@H](O)[C@H](O)[C@H]3O)C[C@]12C [Rg1, ginsenoside Rg1] | -10.8 | 5.1 | significantly increased neurite outgrowth | -7.2 | -5
